# Columns and labels:
# Z α1‐antitrypsin = Z α1‐antitrypsin (Homo sapiens, UniProt P01009, E366K); experiment: TR‐FRET immunoassay (2C1 antibody) of Z α1‐antitrypsin polymerisation, 37°C, 72 h; type: biochemical; parameters: purified from the plasma of Z α1‐antitrypsin homozygotes; from tissue; host or cells: human plasma of Z α1-antitrypsin homozygotes
# From the text: Z α1‐antitrypsin is a conformationally dynamic molecule (Lomas et al, 1992; Knaupp et al, 2010) that represents a non‐classical target for drug discovery. A cell‐free assay approach to hit finding was undertaken so as not to miss compounds that bind α1‐antitrypsin and block polymerisation but lack the molecular properties to cross cell membranes. This comprised the following: (i) an encoded library technology (ELT) screen (Goodnow et al, 2017) of a library with a nominal diversity of 2 × 10^12 unique components to identify binders to Z α1‐antitrypsin and (ii) a high‐throughput screen (HTS) of the GSK compound collection (~ 1.7 million compounds) for small molecules that could block polymerisation of Z α1‐antitrypsin. […] In the HTS assay, polymerisation of purified Z α1‐antitrypsin was induced by incubation at 37°C for 72 h in the presence of test compounds, with end‐point quantification of polymers performed using the polymer‐specific monoclonal antibody, 2C1 (Miranda et al, 2010) in a TR‐FRET‐based immunoassay. […]
# An antibody‐based time‐resolved fluorescence resonance energy transfer (TR‐FRET) assay was developed to monitor the polymerisation of 5 nM Z α1‐antitrypsin following incubation with varying concentrations of compounds at 37°C for 72 h. This assay used the 2C1 monoclonal antibody (1.25 nM) that is specific to pathological polymers of α1‐antitrypsin (Miranda et al, 2010), a polyclonal antibody (1/320 dilution) that binds to all forms of α1‐antitrypsin (Abcam product 9373), an anti‐mouse IgG (1.5 nM) labelled with fluorescence donor Eu‐W1024 (Perkin Elmer product AD0076) and an anti‐rabbit IgG (14.3 nM labelled with acceptor [APC]). […] The TR‐FRET signal was read on an Envision plate reader (PerkinElmer), by excitation of Europium at 337 nm and detection of emission at 665 and 620 nm.
# [1] = test system: α1‐antitrypsin variants M, S, Baghdad, Z; experiment: Association with α1‐antitrypsin variants M, S, Baghdad and Z (intrinsic tryptophan fluorescence); type: binding, human; conditions: 10 μM GSK716
# From the text: Polymerisation of α1‐antitrypsin involves transition through a transient intermediate state known as M*, that is readily populated by the Z variant (Dafforn et al, 1999; Knaupp et al, 2010). The M* conformational ensemble appears to be a distinct species between the native state conformation and that of the final polymer. One of the hallmarks of M* is its recognition by environment‐sensitive fluorescent reporter dyes. Thermal shift assays that make use of the dye SYPRO Orange report the stability of the protein native state against heat‐induced unfolding. […] Native state stability can also be probed by equilibrium unfolding using chemical denaturants, where a peak in bis‐ANS fluorescence corresponds with a maximally populated unfolding intermediate (James & Bottomley, 1998). […] The association of GSK716 induced a marked quenching and blue‐shift of the α1‐antitrypsin intrinsic tryptophan fluorescence spectrum (Fig 4D, inset). The rate of change in fluorescence during association of 10µM GSK716 was proportional to the propensity of α1‐antitrypsin mutants to form polymers in vivo: inert (M), mild (S), moderate (Baghdad) and severe (Z) α1‐antitrypsin (Fig 4D, top and bottom). […]
# Sequence of Z α1‐antitrypsin (P01009 25-418 E366K): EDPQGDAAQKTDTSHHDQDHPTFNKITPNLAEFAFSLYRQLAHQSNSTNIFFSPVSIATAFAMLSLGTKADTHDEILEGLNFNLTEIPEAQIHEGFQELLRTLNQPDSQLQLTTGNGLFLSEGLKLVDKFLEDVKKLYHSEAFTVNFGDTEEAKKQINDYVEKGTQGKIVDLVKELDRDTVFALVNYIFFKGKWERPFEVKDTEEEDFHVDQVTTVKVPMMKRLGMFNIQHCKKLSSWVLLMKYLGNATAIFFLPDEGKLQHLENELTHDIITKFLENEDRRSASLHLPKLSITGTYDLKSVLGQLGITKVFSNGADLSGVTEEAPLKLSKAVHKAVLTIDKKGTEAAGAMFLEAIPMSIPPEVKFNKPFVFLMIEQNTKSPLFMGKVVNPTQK
smiles,measurement,setting,value
CCC[C@@H](NC(=O)c1cccc2c1CC(=O)N2)[C@@H](O)c1cccc(F)c1C [GSK716],IC50,"Z α1‐antitrypsin; 5 nM Z α1‐antitrypsin, 37°C, 72 h, read-out: pIC50, blocking polymerisation in the TR‐FRET immunoassay (converted)",5.01 nM
same,increase in potency over GSK425,Z α1‐antitrypsin; TR‐FRET polymerisation immunoassay,~ 100 fold
same,binding / rate of association across α1‐antitrypsin variants,[1],M < S < Baghdad < Z α1‐antitrypsin

# Reference: article PMC7933930, “Development of a small molecule that corrects misfolding and increases secretion of Z α1‐antitrypsin” (EMBO Molecular Medicine, 2021)
